The values that follow come from paper PMC11433937, “Privileged Scaffold Hybridization in the Design of Carbonic Anhydrase Inhibitors” (Molecules, 2024).

pKi: −log10 of the molar value.

Data set [1] has as its target T1, hCA XII (Homo sapiens, UniProt O43570). The data set can be described thus: Stopped-flow CA-catalyzed CO2 hydration inhibition assay.
Procedure: (§1) A stopped-flow instrument was used, according to the previously reported methodology, to measure the CA (carbonic anhydrase)-catalyzed CO2 hydration/inhibition [46]. For 10 to 100 s, the CA-catalyzed CO2 hydration reaction’s initial rates were observed. […] Stock solutions of inhibitors (10 mM) and dilutions up to 0.01 nM were prepared in distilled-deionized water. Before the experiment started, the inhibitor and enzyme solutions were preincubated for 15 min at room temperature to allow for the formation of the enzyme/inhibitor (E/I) complex.
For the next data set, the target named is hCA I (Homo sapiens, UniProt P00915). Described as above.
A further data set addresses hCA II (Homo sapiens, UniProt P00918). The experiment in a line: Stopped-flow CA-catalyzed CO2 hydration inhibition assay.
The target of data set [2] is T2, hCA IX (Homo sapiens, UniProt Q16790). The description is as above.
Procedure: as §1
Data set [3] has as its target T1, hCA XII. On the set-up: method as in PMID 27775452. The following applies: previously synthesized compound; cited from earlier work.
The target in data set [4] is T2, hCA IX. On the set-up: method as in PMID 27775452. Particulars: previously synthesized compound; cited from earlier work.

T1 sequence (O43570 30-289 limits assumed): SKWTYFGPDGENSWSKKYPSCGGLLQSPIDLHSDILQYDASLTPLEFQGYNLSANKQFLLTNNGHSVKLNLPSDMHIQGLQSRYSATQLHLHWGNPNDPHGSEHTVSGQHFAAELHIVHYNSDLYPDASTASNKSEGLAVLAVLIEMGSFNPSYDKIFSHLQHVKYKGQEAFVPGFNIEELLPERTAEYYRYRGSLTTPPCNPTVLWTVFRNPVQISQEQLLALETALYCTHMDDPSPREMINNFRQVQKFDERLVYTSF
Chain of hCA I (P00915 whole entry): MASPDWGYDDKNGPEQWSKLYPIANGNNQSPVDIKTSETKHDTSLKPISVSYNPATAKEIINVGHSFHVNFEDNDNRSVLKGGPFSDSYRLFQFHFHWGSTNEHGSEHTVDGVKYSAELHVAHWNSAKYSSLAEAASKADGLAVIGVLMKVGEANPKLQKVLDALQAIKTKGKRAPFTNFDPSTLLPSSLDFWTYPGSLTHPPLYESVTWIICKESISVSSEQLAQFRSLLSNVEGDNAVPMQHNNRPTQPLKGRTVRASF
Procedure for hCA II: as §1

The molecule `NS(=O)(=O)c1ccc(NN2C(=O)/C(=C3/C(=O)Nc4ccc([N+](=O)[O-])cc43)SC2=Nc2ccccc2)cc1` [5b, 4-((5-((Z)-5-nitro-2-oxoindolin-3-ylidene)-4-oxo-2-(phenylimino)thiazolidin-3-yl)amino)benzenesulfonamide] came in with a melting point of 338.5 to 340 °C. The molecule also showed a negative logarithm of the Ki (pKi) on hCA XII [1] of 8.12. Further, the negative-log Ki (pKi) at hCA I was 5.22. The molecule further gave a pKi on hCA II of 6.80. This molecule showed a negative logarithm of the Ki (pKi) on hCA IX [2] of 7.46.

Consider `CN1C(=O)/C(=C2/C(=O)Nc3c(F)cccc32)S/C1=N\c1ccc(S(N)(=O)=O)cc1` [EMAC10020m], for which the “inhibitory activity against hCA XII” value at hCA XII [3] is “in the nanomolar range”. Also, at hCA IX [4], the “inhibitory activity against hCA IX” value is reported as “in the nanomolar range”.

The molecule `NS(=O)(=O)c1ccc(NN2C(=O)/C(=C3/C(=O)Nc4ccc(Cl)cc43)SC2=Nc2ccccc2)cc1` [5a, 4-((5-((Z)-5-chloro-2-oxoindolin-3-ylidene)-4-oxo-2-(phenylimino)thiazolidin-3-yl)amino)benzenesulfonamide] yielded a melting point of 314.2 to 316.1 °C. At hCA XII [1], this molecule gave a pKi of 7.21. Further, the pKi at hCA I was 5.34. In addition, the pKi at hCA II is 6.61. The molecule also had a pKi on hCA IX [2] of 7.00.

Take `NS(=O)(=O)c1ccc(NN2C(=O)/C(=C3/C(=O)Nc4ccc(F)cc43)SC2=Nc2ccccc2)cc1` [5c, 4-((5-((Z)-5-fluoro-2-oxoindolin-3-ylidene)-4-oxo-2-(phenylimino)thiazolidin-3-yl)amino)benzenesulfonamide]: the melting point is 297.5 to 299.8 °C. Also, the pKi at hCA XII [1] is 7.66. The molecule also had a pKi on hCA I of 5.23. At hCA II, this molecule had a negative-log Ki (pKi) of 8.16. The negative logarithm of the Ki (pKi) on hCA IX [2] is 7.64.

Turning to `NS(=O)(=O)c1ccc(NN2C(=O)/C(=C3/C(=O)Nc4c(Br)cccc43)SC2=Nc2ccccc2)cc1` [5i, 4-((5-((Z)-7-bromo-2-oxoindolin-3-ylidene)-4-oxo-2-(phenylimino)thiazolidin-3-yl)amino)benzenesulfonamide], the melting point lay in the range of 344.9 to 346 °C. Besides, the pKi at hCA XII [1] is 7.03. In addition, the pKi on hCA I is 5.11. The pKi at hCA II was 7.75. Besides, the negative-log Ki (pKi) at hCA IX [2] is 7.30.

As for `NS(=O)(=O)c1ccc(NN2C(=O)/C(=C3/C(=O)Nc4ccccc43)SC2=Nc2ccccc2)cc1` [5g, 4-((4-oxo-5-((Z)-2-oxoindolin-3-ylidene)-2-(phenylimino)thiazolidin-3-yl)amino)benzenesulfonamide], the pKi is 7.77 on hCA XII [1], 5.28 on hCA I, 8.02 at hCA II and 8.60 on hCA IX [2].

In turn, `NS(=O)(=O)c1ccc(NN2C(=O)/C(=C3/C(=O)Nc4ccc(Br)cc43)SC2=Nc2ccccc2)cc1` [5d, 4-((5-((Z)-5-bromo-2-oxoindolin-3-ylidene)-4-oxo-2-(phenylimino)thiazolidin-3-yl)amino)benzenesulfonamide] displayed a melting point of 331.4 to 332.7 °C. The molecule also showed a pKi on hCA XII [1] of 6.71. The negative logarithm of the Ki (pKi) at hCA I is under 5.00. The molecule also showed a pKi at hCA II of 6.98. On hCA IX [2], this molecule gave a pKi of 7.06.

Regarding `COc1ccc2c(c1)/C(=C1/SC(=Nc3ccccc3)N(Nc3ccc(S(N)(=O)=O)cc3)C1=O)C(=O)N2` [5e, 4-((5-((Z)-5-methoxy-2-oxoindolin-3-ylidene)-4-oxo-2-(phenylimino)thiazolidin-3-yl)amino)benzenesulfonamide], the melting point is 328.8 to 330.1 °C. Besides, on hCA XII [1], the negative-log Ki (pKi) is 7.27. The pKi at hCA I was 5.04. The molecule also showed a pKi on hCA II of 8.02. The pKi on hCA IX [2] is 8.30.

With `Cc1ccc2c(c1)/C(=C1/SC(=Nc3ccccc3)N(Nc3ccc(S(N)(=O)=O)cc3)C1=O)C(=O)N2` [5f, 4-((5-((Z)-5-methyl-2-oxoindolin-3-ylidene)-4-oxo-2-(phenylimino)thiazolidin-3-yl)amino)benzenesulfonamide], the melting point was in the range of 333.9 to 334.6 °C. At hCA XII [1], this molecule showed a negative-log Ki (pKi) of 9.22. Moreover, the “selectivity index SI hCA II/hCA XII” value at hCA XII [1] (ratio of Ki hCA II to Ki hCA XII) is 118. The molecule further showed a pKi on hCA I of under 5.00. In addition, the pKi at hCA II was 7.15. Besides, the negative-log Ki (pKi) on hCA IX [2] is 7.83. Also, the “selectivity index SI hCA II/hCA IX” value at hCA IX [2] (ratio of Ki hCA II to Ki hCA IX) is reported as 4.75.

`NS(=O)(=O)c1ccc(NN2C(=O)/C(=C3/C(=O)Nc4c(F)cccc43)SC2=Nc2ccccc2)cc1` [5h, 4-((5-((Z)-7-fluoro-2-oxoindolin-3-ylidene)-4-oxo-2-(phenylimino)thiazolidin-3-yl)amino)benzenesulfonamide] registered a melting point of 336.1 to 336.6 °C. At hCA XII [1], this molecule had a pKi of 8.89. The molecule also showed a pKi at hCA I of 5.18. The molecule further gave a pKi at hCA II of 8.39. For the same molecule, the pKi at hCA IX [2] was 7.90.
